Data as given in ChEMBL document CHEMBL4043175, “Tetrahydrobenzothiophene carboxamides: Beyond the kinase domain and into the fatty acid realm” (Bioorg Med Chem Lett, 2017).
Calls of active or inactive are those of the source. The rule behind the calls is not given here.

Legend:
[1] = biological target: T1, Stearoyl-CoA desaturase (Homo sapiens) (UniProt O00767); experiment: Inhibition of SCD1 in human HepG2 cells assessed as decrease in 18:1/18:0 desaturase index after 72 hrs by gas chromatographic analysis; assay type: cell-based
T1 sequence (whole entry): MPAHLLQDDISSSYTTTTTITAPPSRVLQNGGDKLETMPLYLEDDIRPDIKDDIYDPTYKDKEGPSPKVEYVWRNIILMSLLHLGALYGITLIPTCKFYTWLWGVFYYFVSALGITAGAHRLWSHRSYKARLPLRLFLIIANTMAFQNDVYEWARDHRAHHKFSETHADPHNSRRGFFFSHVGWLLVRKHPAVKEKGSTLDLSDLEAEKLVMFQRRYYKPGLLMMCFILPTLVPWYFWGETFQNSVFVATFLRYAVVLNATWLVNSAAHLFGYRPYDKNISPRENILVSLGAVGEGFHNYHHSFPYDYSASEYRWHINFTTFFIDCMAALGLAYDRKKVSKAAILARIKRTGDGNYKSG

[2] = biological target: T1, Stearoyl-CoA desaturase (Homo sapiens); experiment: Inhibition of SCD1 in human HepG2 cells assessed as decrease in 16:1/16:0 desaturase index at 10 uM after 72 hrs by gas chromatographic analysis; assay type: cell-based
[3] = biological target: T1, Stearoyl-CoA desaturase (Homo sapiens); experiment: Inhibition of SCD1 in human HepG2 cells assessed as increase in cellular elongase index at 10 uM after 72 hrs by gas chromatographic analysis; assay type: cell-based
[4] = biological target: T1, Stearoyl-CoA desaturase (Homo sapiens); experiment: Inhibition of SCD1 in human HepG2 cells assessed as decrease in 18:1/18:0 desaturase index AT 10 uM after 72 hrs by gas chromatographic analysis; assay type: cell-based
[5] = biological target: T1, Stearoyl-CoA desaturase (Homo sapiens); experiment: Inhibition of SCD1 in human HepG2 cells assessed as decrease in 16:1/16:0 desaturase index after 72 hrs by gas chromatographic analysis; assay type: cell-based
[6] = biological target: T1, Stearoyl-CoA desaturase (Homo sapiens); experiment: Inhibition of SCD1 in human HepG2 cells assessed as decrease in cellular lipid accumulation at 10 uM after 48 hrs by Oil Red O staining-based assay; assay type: cell-based
[7] = biological target: T1, Stearoyl-CoA desaturase (Homo sapiens); experiment: Inhibition of SCD1 in human HepG2 cells assessed as decrease in cellular elongase index at 10 uM after 72 hrs by gas chromatographic analysis; assay type: cell-based
[8] = biological target: Tyrosine-protein kinase ABL1 (Homo sapiens) (UniProt P00519); experiment: Inhibition of full-length recombinant human N-terminal His-tagged ABL expressed in baculovirus expression system at 10 uM by TR-FRET assay relative to control
Sequence of Tyrosine-protein kinase ABL1 (Homo sapiens) (P00519 whole entry, the tested form may be a part): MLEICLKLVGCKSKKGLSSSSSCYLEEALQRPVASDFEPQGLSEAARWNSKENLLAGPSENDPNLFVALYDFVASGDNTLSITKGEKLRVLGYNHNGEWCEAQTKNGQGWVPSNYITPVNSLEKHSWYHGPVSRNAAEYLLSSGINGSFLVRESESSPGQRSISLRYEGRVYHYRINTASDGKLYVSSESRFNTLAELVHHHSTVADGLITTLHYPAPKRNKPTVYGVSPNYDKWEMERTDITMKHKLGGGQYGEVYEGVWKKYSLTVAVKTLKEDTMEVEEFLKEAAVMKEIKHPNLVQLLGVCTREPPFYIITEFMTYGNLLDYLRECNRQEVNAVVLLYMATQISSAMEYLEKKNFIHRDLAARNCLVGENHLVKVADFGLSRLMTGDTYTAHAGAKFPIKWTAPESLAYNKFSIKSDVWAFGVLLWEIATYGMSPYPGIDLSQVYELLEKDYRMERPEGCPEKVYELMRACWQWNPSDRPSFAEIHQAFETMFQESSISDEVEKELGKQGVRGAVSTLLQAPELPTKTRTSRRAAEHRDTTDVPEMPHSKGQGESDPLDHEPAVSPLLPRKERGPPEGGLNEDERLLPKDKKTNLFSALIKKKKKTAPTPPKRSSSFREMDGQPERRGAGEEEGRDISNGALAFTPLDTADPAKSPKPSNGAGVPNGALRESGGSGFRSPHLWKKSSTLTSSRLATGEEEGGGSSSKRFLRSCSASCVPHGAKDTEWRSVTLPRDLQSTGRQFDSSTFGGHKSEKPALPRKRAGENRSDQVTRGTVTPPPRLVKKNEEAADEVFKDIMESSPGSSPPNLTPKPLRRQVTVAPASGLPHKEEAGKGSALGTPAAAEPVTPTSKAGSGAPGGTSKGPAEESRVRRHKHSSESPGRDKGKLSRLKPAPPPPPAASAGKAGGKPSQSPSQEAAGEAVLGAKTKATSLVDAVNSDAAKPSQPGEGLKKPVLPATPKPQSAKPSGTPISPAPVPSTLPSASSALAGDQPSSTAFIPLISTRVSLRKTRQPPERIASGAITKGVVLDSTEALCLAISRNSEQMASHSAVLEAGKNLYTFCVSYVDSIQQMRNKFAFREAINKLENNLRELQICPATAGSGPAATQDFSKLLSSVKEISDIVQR

[9] = biological target: Macrophage colony-stimulating factor 1 receptor (Homo sapiens) (UniProt P07333); experiment: Inhibition of recombinant human N-terminal GST-tagged FMS cytoplasmic domain (538 to 972 residues) expressed in baculovirus expression system at 10 uM by TR-FRET assay relative to control
Sequence of Macrophage colony-stimulating factor 1 receptor (Homo sapiens) (P07333 whole entry, the tested form may be a part): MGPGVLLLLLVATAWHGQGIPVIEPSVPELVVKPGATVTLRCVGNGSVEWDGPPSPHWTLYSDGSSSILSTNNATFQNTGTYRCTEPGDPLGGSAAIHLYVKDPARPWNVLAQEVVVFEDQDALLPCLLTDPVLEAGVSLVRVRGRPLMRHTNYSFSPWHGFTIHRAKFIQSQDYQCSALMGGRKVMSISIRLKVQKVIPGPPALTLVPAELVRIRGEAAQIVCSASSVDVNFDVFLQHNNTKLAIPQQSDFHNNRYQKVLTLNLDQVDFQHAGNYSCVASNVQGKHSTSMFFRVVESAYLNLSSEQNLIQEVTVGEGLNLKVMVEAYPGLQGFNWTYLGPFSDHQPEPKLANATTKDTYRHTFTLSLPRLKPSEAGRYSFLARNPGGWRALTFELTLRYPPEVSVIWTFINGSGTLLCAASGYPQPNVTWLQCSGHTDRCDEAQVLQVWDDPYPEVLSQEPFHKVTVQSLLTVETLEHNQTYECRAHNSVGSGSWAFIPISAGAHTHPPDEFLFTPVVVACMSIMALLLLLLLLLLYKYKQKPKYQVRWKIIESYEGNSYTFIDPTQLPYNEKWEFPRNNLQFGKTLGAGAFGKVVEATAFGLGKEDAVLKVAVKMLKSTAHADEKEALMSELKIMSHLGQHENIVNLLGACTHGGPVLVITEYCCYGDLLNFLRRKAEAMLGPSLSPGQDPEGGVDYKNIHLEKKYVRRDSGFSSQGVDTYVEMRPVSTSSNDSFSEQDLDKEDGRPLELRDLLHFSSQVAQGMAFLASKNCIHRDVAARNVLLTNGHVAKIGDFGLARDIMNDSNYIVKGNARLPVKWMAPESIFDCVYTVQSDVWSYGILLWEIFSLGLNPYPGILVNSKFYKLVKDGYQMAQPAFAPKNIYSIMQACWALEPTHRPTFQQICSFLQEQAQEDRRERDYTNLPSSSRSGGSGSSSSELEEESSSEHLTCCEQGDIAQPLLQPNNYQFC

[10] = biological target: T1, Stearoyl-CoA desaturase (Homo sapiens); experiment: Inhibition of SCD1 in human HepG2 cells assessed as increase in cellular elongase index at 1 uM after 72 hrs by gas chromatographic analysis; assay type: cell-based
[11] = biological target: T1, Stearoyl-CoA desaturase (Homo sapiens); experiment: Inhibition of SCD1 in human HepG2 cells assessed as decrease in 16:1/16:0 desaturase index at 1 uM after 72 hrs by gas chromatographic analysis; assay type: cell-based
[12] = biological target: Tyrosine-protein kinase JAK2 (Homo sapiens) (UniProt O60674); experiment: Inhibition of recombinant human N-terminal His-tagged JAK2 catalytic domain (826 to 1132 residues) expressed in baculovirus expression system at 10 uM by TR-FRET assay relative to control
Sequence of Tyrosine-protein kinase JAK2 (Homo sapiens) (O60674 whole entry, the tested form may be a part): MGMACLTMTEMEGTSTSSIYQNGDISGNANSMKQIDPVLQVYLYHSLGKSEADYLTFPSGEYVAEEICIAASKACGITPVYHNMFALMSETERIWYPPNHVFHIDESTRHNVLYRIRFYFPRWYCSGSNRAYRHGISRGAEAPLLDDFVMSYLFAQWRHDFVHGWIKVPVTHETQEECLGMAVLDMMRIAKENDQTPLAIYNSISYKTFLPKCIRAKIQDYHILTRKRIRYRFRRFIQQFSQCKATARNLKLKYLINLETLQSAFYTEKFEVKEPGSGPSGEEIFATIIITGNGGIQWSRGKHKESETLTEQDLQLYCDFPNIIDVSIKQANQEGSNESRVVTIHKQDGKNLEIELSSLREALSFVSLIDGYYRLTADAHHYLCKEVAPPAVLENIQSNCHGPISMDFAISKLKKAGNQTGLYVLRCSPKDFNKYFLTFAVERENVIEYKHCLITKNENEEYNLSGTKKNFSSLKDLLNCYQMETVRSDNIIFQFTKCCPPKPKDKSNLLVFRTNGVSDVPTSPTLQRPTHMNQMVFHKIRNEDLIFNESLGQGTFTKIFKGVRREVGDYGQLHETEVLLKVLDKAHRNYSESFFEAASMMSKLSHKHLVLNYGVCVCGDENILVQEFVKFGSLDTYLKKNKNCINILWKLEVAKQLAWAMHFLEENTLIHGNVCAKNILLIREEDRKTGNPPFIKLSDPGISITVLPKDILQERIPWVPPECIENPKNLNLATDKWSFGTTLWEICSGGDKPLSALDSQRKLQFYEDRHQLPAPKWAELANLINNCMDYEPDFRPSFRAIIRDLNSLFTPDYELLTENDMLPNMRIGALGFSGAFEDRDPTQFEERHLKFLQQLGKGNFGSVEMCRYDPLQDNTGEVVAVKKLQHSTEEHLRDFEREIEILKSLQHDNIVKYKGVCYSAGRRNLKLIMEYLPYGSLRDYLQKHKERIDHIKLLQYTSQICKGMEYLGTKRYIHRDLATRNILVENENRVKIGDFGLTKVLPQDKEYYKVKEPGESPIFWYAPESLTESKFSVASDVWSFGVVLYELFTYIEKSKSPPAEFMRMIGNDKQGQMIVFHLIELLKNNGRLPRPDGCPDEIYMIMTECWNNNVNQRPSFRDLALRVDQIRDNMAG

[13] = biological target: Receptor-type tyrosine-protein kinase FLT3 (Homo sapiens) (UniProt P36888); experiment: Inhibition of recombinant human N-terminal GST-tagged FLT3 cytoplasmic domain (564 to 993 residues) expressed in baculovirus expression system at 10 uM by TR-FRET assay relative to control
Sequence of Receptor-type tyrosine-protein kinase FLT3 (Homo sapiens) (P36888 whole entry, the tested form may be a part): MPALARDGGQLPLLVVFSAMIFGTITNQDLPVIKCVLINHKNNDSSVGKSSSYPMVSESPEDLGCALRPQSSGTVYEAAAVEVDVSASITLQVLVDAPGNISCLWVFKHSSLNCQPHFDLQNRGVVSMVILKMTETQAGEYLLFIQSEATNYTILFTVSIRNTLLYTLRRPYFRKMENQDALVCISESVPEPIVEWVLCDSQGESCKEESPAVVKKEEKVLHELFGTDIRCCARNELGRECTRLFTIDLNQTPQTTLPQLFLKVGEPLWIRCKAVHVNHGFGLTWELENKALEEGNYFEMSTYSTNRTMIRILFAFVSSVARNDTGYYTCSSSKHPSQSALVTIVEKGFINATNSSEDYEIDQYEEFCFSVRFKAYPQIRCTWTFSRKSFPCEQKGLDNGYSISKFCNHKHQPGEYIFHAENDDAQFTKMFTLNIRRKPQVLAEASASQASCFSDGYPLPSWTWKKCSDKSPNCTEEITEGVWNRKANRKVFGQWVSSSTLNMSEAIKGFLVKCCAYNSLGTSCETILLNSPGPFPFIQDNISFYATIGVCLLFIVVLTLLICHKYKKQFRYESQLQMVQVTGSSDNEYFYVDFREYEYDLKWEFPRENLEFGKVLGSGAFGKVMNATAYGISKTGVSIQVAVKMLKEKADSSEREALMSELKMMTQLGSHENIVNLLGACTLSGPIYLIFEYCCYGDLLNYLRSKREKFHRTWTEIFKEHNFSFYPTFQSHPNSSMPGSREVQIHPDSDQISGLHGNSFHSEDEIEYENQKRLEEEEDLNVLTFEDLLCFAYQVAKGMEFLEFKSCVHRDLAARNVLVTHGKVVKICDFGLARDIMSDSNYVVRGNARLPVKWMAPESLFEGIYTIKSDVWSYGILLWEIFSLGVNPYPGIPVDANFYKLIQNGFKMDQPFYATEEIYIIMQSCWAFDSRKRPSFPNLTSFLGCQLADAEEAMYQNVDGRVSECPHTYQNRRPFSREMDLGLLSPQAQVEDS

[14] = biological target: T1, Stearoyl-CoA desaturase (Homo sapiens); experiment: Inhibition of SCD1 in human HepG2 cells assessed as decrease in 18:1/18:0 desaturase index at 1 uM after 72 hrs by gas chromatographic analysis; assay type: cell-based
[15] = biological target: T1, Stearoyl-CoA desaturase (Homo sapiens); experiment: Inhibition of SCD1 in human HepG2 cells assessed as decrease in cellular lipid accumulation at 1 uM after 48 hrs by Oil Red O staining-based assay; assay type: cell-based
[16] = biological target: T1, Stearoyl-CoA desaturase (Homo sapiens); experiment: Inhibition of SCD1 in human HepG2 cells assessed as increase in cellular elongase index after 72 hrs by gas chromatographic analysis; assay type: cell-based

| SMILES | inhibition [1] | inhibition [2] | inhibition [3] | inhibition [4] | inhibition [5] | inhibition [7] | other results |
| --- | --- | --- | --- | --- | --- | --- | --- |
| O=c1[nH]c(-c2ccc(CN3CCOCC3)cc2)nc2sc3c(c12)CCC(CO)C3 (stereo not given) | Dose-dependent effect | Active | Active | Active | Dose-dependent effect |  |  |
| NC(=O)c1c(NC(=O)c2ccc(CN3CCS(=O)(=O)CC3)cc2)sc2c1CCC(CO)C2 (stereo not given) | Dose-dependent effect | Active | Active | Active | Dose-dependent effect |  |  |
| CN(C)Cc1ccc(C(=O)Nc2sc3c(c2C(N)=O)CCC(CO)C3)cc1 (stereo not given) | Dose-dependent effect | Active | Active | Active | Dose-dependent effect |  |  |
| CN(C)Cc1ccc(-c2nc3sc4c(c3c(=O)[nH]2)CCC(CO)C4)cc1 (stereo not given) |  |  |  |  |  | Active | inhibition [6]: inactive |
| NC(=O)c1c(NC(=O)c2ccc(CN3CCOCC3)cc2)sc2c1CCC(c1ccc(O)cc1)C2 (stereo not given) |  |  | inactive |  |  |  |  |
| NC(=O)c1c(N)sc2c1CCC(CO)C2 (stereo not given) |  |  |  |  |  | Active |  |
| NC(=O)c1c(NC(=O)c2ccc(CN3CCCCC3)cc2)sc2c1CCC(CO)C2 (stereo not given) | Dose-dependent effect | Active | Active | Active | Dose-dependent effect |  |  |
| O=c1[nH]c(-c2ccc(CN3CCCCC3)cc2)nc2sc3c(c12)CCC(CO)C3 (stereo not given) |  |  |  |  |  | Active |  |
| O=c1[nH]c(-c2ccc(CN3CCS(=O)(=O)CC3)cc2)nc2sc3c(c12)CCC(CO)C3 (stereo not given) |  |  |  |  |  | Active |  |
| NC(=O)c1c(NC(=O)c2ccc(CN3CCOCC3)cc2)sc2c1CCC(C(=O)O)C2 (stereo not given) |  |  | inactive |  |  |  |  |
| CCOC(=O)C1CCc2c(sc(NC(=O)c3ccc(CN4CCOCC4)cc3)c2C(N)=O)C1 (stereo not given) |  |  |  |  |  | Active |  |
| NC(=O)c1c(NC(=O)c2ccc(CN3CCOCC3)cc2)sc2c1CCC(CO)C2 (stereo not given) | Dose-dependent effect | Active | Active | Active | Dose-dependent effect |  | inhibition [8]: > 80%; inhibition [9]: > 80%; inhibition [6]: Active; inhibition [10]: Active; inhibition [11]: Active; inhibition [12]: 45%; inhibition [13]: > 80%; inhibition [14]: Active |
| NC(=O)c1c(NC(=O)c2ccc(CN3CCOCC3)cc2)sc2c1CCCC2CCO (stereo not given) |  |  |  |  |  | Active |  |
| NC(=O)c1c(NC(=O)c2ccc(CN3CCOCC3)cc2)sc2c1CCCC2 |  |  |  |  |  | Active |  |
| Cc1nnc(-c2ccc(N3CCC(Oc4cc(F)ccc4Cl)CC3)nn2)o1 | Dose-dependent effect | Active | Active | Active | Dose-dependent effect |  | inhibition [15]: Active; inhibition [16]: Dose-dependent effect |
